# Measurements reported in publication PMC11125359 (Pharmaceuticals, 2024).
# Like-named read-outs stand apart in the source and are kept apart here.
# What was measured:
# [1] = test system: human colon cancer (Caco-2) cell line; experiment: cells; assay type: cell-based; conditions: for IC50: Homo sapiens, read-out: Cytotoxic activity IC50, Colon (Caco-2)
# [2] = Cytotoxic activity, MTT assay, normal lung (WI-38); assay type: cell-based; conditions: human
# [3] = test system: human lung cancer (A549) cell line; conditions: 48 h
# Procedure: (§1) It will be assayed against human lung cancer (A549) and colon (Caco-2) cell line in
# (§2) comparison with normal lung (WI-38) cell line using 3-(4,5-dimethythiazol-2-yl)-2,5-diphenyl
# (§3) tetrazolium bromide (MTT) assay by determining the optical density (OD) at 570 nm according to the
# (§4) The cells were dispensed in a 96-well sterile microplate (3
# (§5) µL of each compound or doxorubicin (positive control, in DMSO) for 48 h in a serum free medium
# (§6) prior to the MTT assay. Subsequently, the media were carefully removed, and 40 µL of MTT (2.5
# (§7) mg/mL) was added to each well and then incubated for an additional 4 h. Purple formazan dye
# (§8) crystals were solubilized by the addition of 200 µL of DMSO. The absorbance was measured at 570 nm using a SpectraMax Paradigm Multi-Mode microplate reader. The relative cell viability was
# (§9) experiments were conducted in triplicate. Percent of the cell-growth inhibition (%) and the IC 50 was
# (§10) calculated using IC 50 calculation software. The concentrations used for calculating the IC 50 depend on
# Bcl-2 [4] = experiment: Bcl-2 ELISA in treated A549 cells; assay type: cell-based, human; conditions: DMSO control 9.83 ± 0.05
# [5] = test system: human lung cancer (A549) cell line; experiment: Cytotoxic activity, MTT assay, lung (A549); conditions: for IC50: Homo sapiens, A549, 48 h, read-out: Cytotoxic activity IC50, Lung (A549)
# Procedure: as §1, §2, §3, §4, §5, §6, §7, §8, §9, §10
# caspase-3 [6] = experiment: Caspase-3 ELISA in treated A549 cells; assay type: cell-based, human; conditions: DMSO control 85.92 ± 0.12
# [7] = target: bovine serum albumin (BSA) (Bos taurus, UniProt P02769); conditions: equal concentrations (1000 µg/mL); mean ± SE
# Sequence of bovine serum albumin (BSA) (P02769 25-607): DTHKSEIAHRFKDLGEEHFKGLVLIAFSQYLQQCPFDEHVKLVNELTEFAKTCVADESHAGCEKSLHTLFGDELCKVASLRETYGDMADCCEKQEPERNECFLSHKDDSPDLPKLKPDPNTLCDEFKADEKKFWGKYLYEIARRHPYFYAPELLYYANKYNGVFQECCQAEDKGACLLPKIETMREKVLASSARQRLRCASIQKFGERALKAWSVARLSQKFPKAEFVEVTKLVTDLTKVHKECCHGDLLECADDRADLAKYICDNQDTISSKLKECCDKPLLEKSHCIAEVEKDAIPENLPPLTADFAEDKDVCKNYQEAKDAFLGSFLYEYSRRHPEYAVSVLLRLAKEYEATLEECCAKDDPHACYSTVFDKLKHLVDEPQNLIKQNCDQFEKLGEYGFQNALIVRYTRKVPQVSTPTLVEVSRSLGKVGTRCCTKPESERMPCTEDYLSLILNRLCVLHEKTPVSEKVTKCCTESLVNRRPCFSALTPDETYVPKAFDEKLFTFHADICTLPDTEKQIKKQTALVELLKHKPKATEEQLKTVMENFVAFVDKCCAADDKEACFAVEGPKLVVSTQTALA
# [8] = test system: proteinase enzyme (trypsin); experiment: Proteinase enzyme inhibition (anti-inflammatory); assay type: biochemical; conditions: equal concentrations (1000 µg/mL); mean ± SE
# Bcl-2 [9] = experiment: Bcl-2 ELISA in treated Caco-2 cells; assay type: cell-based, human; conditions: DMSO control 7.99 ± 0.08
# [10] = Total antioxidant capacity (TAC), phosphomolybdenum method; conditions: equal concentrations (1000 µg/mL); mean ± SE, three replicates
# α-amylase = experiment: α-Amylase inhibition (anti-diabetic); assay type: biochemical; conditions: equal concentrations (1000 µg/mL); mean ± SE
# α-glucosidase = experiment: α-Glucosidase inhibition (anti-diabetic); assay type: biochemical; conditions: equal concentrations (1000 µg/mL); mean ± SE
# [11] = DPPH radical-scavenging activity; conditions: read-out: DPPH (IC50); mean ± SE, three replicates
# Procedure: In vitro biological activities
# The 1,1-Diphenyl-2-picryl-hydrazyl (DPPH) radical scavenging activities were evaluated using the method described by Rahman et al. An antioxidant substance capable of donating a
# hydrogen atom to a solution containing DPPH- can reduce the stable free radical, causing the solution
# to change color from violet to pale yellow. The remaining DPPH- radical was quantified by
# nm using a spectroscopic method. Two milliliters of a DPPH solution (100 µM) in ethanol were mixed
# with 2 mL of the sample (at each concentration). The reaction mixture for each concentration was
# thoroughly vortexed and then incubated in the dark at room temperature for 30 minutes. The
# absorbance was then measured spectrophotometrically at 518 nm against a blank (ethanol). For the
# control, 2 mL of ethanol was added instead of the sample and run simultaneously with the test.
# Ascorbic acid was used at the same concentrations as a positive control. Percent inhibition of the
# DPPH free radical was calculated. The median inhibitory concentration (IC 50) for each tested
# [12] = target: acetylcholinesterase (AChE) (Homo sapiens, UniProt P22303); experiment: biochemical; conditions: same concentration (1000 µg/mL); mean ± SE
# Sequence of acetylcholinesterase (AChE) (P22303 32-614, species assumed): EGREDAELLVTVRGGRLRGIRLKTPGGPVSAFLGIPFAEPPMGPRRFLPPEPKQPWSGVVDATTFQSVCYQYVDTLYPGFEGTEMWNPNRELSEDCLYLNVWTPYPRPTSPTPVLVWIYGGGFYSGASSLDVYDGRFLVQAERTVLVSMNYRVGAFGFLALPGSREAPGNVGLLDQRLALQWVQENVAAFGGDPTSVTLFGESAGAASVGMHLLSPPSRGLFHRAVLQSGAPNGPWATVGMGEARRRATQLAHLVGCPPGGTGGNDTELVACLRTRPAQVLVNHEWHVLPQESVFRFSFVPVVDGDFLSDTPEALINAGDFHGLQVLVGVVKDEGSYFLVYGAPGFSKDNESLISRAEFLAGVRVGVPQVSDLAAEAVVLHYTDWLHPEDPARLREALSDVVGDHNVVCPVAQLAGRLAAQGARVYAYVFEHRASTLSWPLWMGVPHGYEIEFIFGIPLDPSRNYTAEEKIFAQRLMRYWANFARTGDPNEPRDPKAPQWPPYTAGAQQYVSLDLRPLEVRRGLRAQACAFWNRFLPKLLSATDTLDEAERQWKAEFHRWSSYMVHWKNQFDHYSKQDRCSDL
# [13] = Iron-reducing power (IRP); conditions: equal concentrations (1000 µg/mL); mean ± SE, three replicates
# caspase-3 [14] = experiment: Caspase-3 ELISA in treated Caco-2 cells; assay type: cell-based, human; conditions: DMSO control 97.06 ± 0.14
# [15] = ABTS radical scavenging assay; conditions: equal concentrations (1000 µg/mL); mean ± SE
# [16] = Conc.: 5a 13.45, 5d 12.64, 5e 12.29, 5f 11.81, 7a 12.72, 7f 11.24, DOX 11.50
# [17] = Conc.: 5a 26.91, 5d 25.27, 5e 24.58, 5f 23.63, 7a 25.43, 7f 22.48, DOX 23.00
# [18] = Conc.: 5a 53.81, 5d 50.55, 5e 49.15, 5f 47.26, 7a 50.86, 7f 44.96, DOX 46.00
# [19] = Conc.: 5a 107.63, 5d 101.09, 5e 98.31, 5f 94.51, 7a 101.72, 7f 89.93, DOX 91.99
# [20] = Conc.: 5a 215.26, 5d 202.19, 5e 196.61, 5f 189.03, 7a 203.44, 7f 179.85, DOX 183.99
smiles,measurement,setting,value
"COc1cccc2c1C(=O)c1c(O)c3c(c(O)c1C2=O)C[C@@](O)(C(=O)CO)C[C@@H]3O[C@H]1C[C@H](N)[C@H](O)[C@H](C)O1 [Doxorubicin, reference compound]","Therapeutic Index (TI), Colon (Caco-2)",[1]; Caco-2,5.55
same,IC50,"[1]; Caco-2, 48 h",54.94 ± 0.16 µM
same,"Viability %, Caco-2, 1st concentration","[1]; human, Caco-2, 48 h",72.32%
same,"Viability %, Caco-2, 2nd concentration","[1]; human, Caco-2, 48 h",50.77%
same,"Viability %, Caco-2, 3rd concentration","[1]; human, Caco-2, 48 h",41.86%
same,"Viability %, Caco-2, 4th concentration","[1]; human, Caco-2, 48 h",23.02%
same,"Viability %, Caco-2, 5th concentration","[1]; human, Caco-2, 48 h",20.05%
same,IC50 at 48 h,[2],305 ± 4.72 µM
same,viability at 48 h,"[2]; Viability %, WI-38, 1st concentration",77.5%
same,viability at 48 h,"[2]; Viability %, WI-38, 2nd concentration",69.1%
same,viability at 48 h,"[2]; Viability %, WI-38, 3rd concentration",62.3%
same,viability at 48 h,"[2]; Viability %, WI-38, 4th concentration",52.7%
same,viability at 48 h,"[2]; Viability %, WI-38, 5th concentration",38.5%
same,"Viability %, A549, 1st concentration",[3],80.86%
same,"Viability %, A549, 2nd concentration",[3],69.31%
same,"Viability %, A549, 3rd concentration",[3],36.91%
same,"Viability %, A549, 4th concentration",[3],18.92%
same,"Viability %, A549, 5th concentration",[3],11.20%
same,"Bcl-2 level, Lung (A549)",Bcl-2 [4],2.55 ± 0.01 ng/mL
same,IC50,[5],36.45 ± 0.16 µM
same,"Caspase-3 level, Lung (A549)",caspase-3 [6],330.80 ± 0.46 pg/mL
COc1ccc(Nc2n[nH]c(/N=C/c3ccc(N4CCCCC4)cc3)c2C(=O)Nc2ccccc2)cc1 [5d],Inhibition (%) Protein Denaturation,[7],27.79 ± 0.03%
same,Inhibition (%) Proteinase,[8],24.17 ± 0.03%
same,"Viability %, Caco-2, 1st concentration",[1]; [16],70.71%
same,"Viability %, Caco-2, 2nd concentration",[1]; [17],51.15%
same,"Viability %, Caco-2, 3rd concentration",[1]; [18],40.54%
same,"Viability %, Caco-2, 4th concentration",[1]; [19],26.77%
same,"Viability %, Caco-2, 5th concentration",[1]; [20],23.43%
same,IC50,"[1]; Caco-2, 48 h, MTT, mean ± SE",62.33 ± 0.14 µM
same,"Therapeutic Index (TI), Colon (Caco-2)",[1]; IC50 on normal cells (WI-38)/IC50 on Caco-2,11.73
same,"Bcl-2 level, Colon (Caco-2)",Bcl-2 [9],3.20 ± 0.03 ng/mL
same,Total Antioxidant Capacity (TAC),[10],54.13 ± 0.20 mg Gallic Acid/g
same,Inhibition (%) α-Amylase,α-amylase,32.37 ± 0.05%
same,Inhibition (%) α-Glucosidase,α-glucosidase,27.84 ± 0.05%
same,viability at 48 h,"[2]; WI-38 normal lung cells, Conc. as printed: 5a 53.81, 5d 50.55, 5e 49.15, 5f 47.26, 7a 50.86, 7f 44.96, DOX 46.00, read-out: Viability %, WI-38, 3rd concentration",82.7%
same,viability at 48 h,"[2]; WI-38 normal lung cells, Conc. as printed: 5a 107.63, 5d 101.09, 5e 98.31, 5f 94.51, 7a 101.72, 7f 89.93, DOX 91.99, read-out: Viability %, WI-38, 4th concentration",76.8%
same,viability at 48 h,"[2]; WI-38 normal lung cells, Conc.: 5a 13.45, 5d 12.64, 5e 12.29, 5f 11.81, 7a 12.72, 7f 11.24, DOX 11.50, read-out: Viability %, WI-38, 1st concentration",98.7%
same,viability at 48 h,"[2]; WI-38 normal lung cells, Conc.: 5a 26.91, 5d 25.27, 5e 24.58, 5f 23.63, 7a 25.43, 7f 22.48, DOX 23.00, read-out: Viability %, WI-38, 2nd concentration",90.7%
same,viability at 48 h,"[2]; WI-38 normal lung cells, Conc.: 5a 215.26, 5d 202.19, 5e 196.61, 5f 189.03, 7a 203.44, 7f 179.85, DOX 183.99, read-out: Viability %, WI-38, 5th concentration",62.7%
same,IC50 at 48 h,"[2]; WI-38 normal lung cells, 48 h, MTT, mean ± SE, read-out: Cytotoxic activity IC50, Normal Lung (WI-38)",732 ± 10.5 µM
same,IC50,[11],23.98 ± 0.01 µM
same,Inhibition (%) Acetylcholinesterase,[12],62.11 ± 0.04%
same,inhibition at 1000 µg/mL,[12],62 ± 0.04%
same,"Bcl-2 level, Lung (A549)",Bcl-2 [4],2.81 ± 0.01 ng/mL
same,Iron-Reducing Power (IRP),[13],35.51 ± 0.07 µg/mL
same,"Caspase-3 level, Colon (Caco-2)",caspase-3 [14],242.65 ± 0.36 pg/mL
same,"Viability %, A549, 1st concentration",[5]; [16],90.46%
same,"Viability %, A549, 2nd concentration",[5]; [17],79.41%
same,"Viability %, A549, 3rd concentration",[5]; [18],48.01%
same,"Viability %, A549, 4th concentration",[5]; [19],36.58%
same,"Viability %, A549, 5th concentration",[5]; [20],18.10%
same,IC50,[5],48.61 ± 0.14 µM
same,"Caspase-3 level, Lung (A549)",caspase-3 [6],300.73 ± 0.42 pg/mL
same,ABTS (%) inhibition,[15],78.18 ± 0.05%
